Legend:
α-synuclein = target: T1, α-synuclein (Homo sapiens, UniProt P37840); test: ThT seeded aggregation kinetics; half-time increased […] times at […] molar equivalents; weakest, not significant at […] equivalents; assay type: biochemical
T1 construct: gene SNCA

α-synuclein (fibrils) = target: T2, α-synuclein (fibrils) (Homo sapiens, UniProt P37840); test: fluorescence polarization with fibrils (Kd in monomer equivalents); supported by mass spectrometry pull-down, fluorescence colocalization and aggregation kinetics; assay type: binding
T2 construct: gene SNCA; recombinant human α-synuclein, preformed amyloid fibrils

Row | ThT seeded aggregation kinetics; half-time increased 1.5 times at 10 molar equiv (α-synuclein) | Kd (α-synuclein (fibrils)) [µM] | Structure (SMILES)
1 | 1.5 fold increase in half-time (t1/2) | – | Cc1nc2ccccn2c1C(=O)NCc1nccnc1-c1ccco1 [A, compound A]
2 | – | ~4 | Cc1c(OCc2nnn[nH]2)ccc2c1oc(=O)c1ccccc12 [C, compound C]
